According to ChEMBL document CHEMBL1133572, “Protease inhibitors: current status and future prospects” (J Med Chem, 2000):
Non-standard residues stand in square brackets, D forms with d. Residues, ends and D or L forms follow the SMILES beside them. *: point of attachment. Cbz = O=C(OCc1ccccc1)*; Dap = NC[C@H](N)C(=O)O

Key:
[1] = Inhibitory concentration against several aspartic proteases of Candida albicans
[2] = target: T1, Renin (Homo sapiens, UniProt P00797); assay: Inhibitory concentration against renin.
T1 sequence (P00797 whole entry): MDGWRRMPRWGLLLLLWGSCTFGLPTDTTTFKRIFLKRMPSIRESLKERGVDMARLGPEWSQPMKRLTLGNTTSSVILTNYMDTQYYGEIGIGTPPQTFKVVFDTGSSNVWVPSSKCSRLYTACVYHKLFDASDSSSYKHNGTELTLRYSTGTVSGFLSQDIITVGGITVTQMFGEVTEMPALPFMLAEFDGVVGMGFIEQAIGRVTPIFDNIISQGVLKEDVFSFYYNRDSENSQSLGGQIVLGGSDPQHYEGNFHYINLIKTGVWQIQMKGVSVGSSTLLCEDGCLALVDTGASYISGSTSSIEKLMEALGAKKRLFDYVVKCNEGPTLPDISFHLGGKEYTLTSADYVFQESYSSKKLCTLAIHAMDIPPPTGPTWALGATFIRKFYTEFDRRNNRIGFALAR

[3] = target: T2, Cathepsin D (Homo sapiens, UniProt P07339); assay: Inhibitory concentration against cathepsin D
T2 sequence (P07339 65-162 limits assumed): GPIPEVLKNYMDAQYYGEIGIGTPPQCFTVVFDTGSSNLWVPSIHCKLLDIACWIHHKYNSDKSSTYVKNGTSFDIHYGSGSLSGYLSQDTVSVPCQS
T2 sequence (P07339 169-412 limits assumed): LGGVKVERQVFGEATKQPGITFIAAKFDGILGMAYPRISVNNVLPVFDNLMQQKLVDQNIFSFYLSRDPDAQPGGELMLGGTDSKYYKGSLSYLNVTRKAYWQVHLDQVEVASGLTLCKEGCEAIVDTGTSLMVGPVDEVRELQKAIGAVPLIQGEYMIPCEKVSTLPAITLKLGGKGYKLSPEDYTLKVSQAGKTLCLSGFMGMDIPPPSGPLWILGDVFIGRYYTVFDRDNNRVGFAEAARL

[4] = target: T3, Human rhinovirus A protease (Human rhinovirus sp., UniProt Q4U254); assay: Effective concentration against human rhinovirus 3C protease.
T3 sequence (Q4U254 whole entry): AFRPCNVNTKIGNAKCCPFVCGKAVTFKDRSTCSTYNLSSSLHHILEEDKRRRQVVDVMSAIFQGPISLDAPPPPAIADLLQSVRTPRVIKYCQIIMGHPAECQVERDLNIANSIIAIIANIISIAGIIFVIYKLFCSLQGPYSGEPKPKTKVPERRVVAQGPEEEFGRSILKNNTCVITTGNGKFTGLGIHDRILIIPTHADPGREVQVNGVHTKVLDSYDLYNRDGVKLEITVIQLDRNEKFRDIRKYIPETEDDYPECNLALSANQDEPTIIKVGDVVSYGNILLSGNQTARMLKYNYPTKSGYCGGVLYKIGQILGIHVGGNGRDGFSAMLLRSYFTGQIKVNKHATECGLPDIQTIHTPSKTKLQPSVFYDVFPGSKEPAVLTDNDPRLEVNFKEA

[5] = target: T4, Neprilysin (Rattus norvegicus, UniProt P07861); assay: Inhibitory activity against neutral Endopeptidase
T4 sequence (P07861 whole entry): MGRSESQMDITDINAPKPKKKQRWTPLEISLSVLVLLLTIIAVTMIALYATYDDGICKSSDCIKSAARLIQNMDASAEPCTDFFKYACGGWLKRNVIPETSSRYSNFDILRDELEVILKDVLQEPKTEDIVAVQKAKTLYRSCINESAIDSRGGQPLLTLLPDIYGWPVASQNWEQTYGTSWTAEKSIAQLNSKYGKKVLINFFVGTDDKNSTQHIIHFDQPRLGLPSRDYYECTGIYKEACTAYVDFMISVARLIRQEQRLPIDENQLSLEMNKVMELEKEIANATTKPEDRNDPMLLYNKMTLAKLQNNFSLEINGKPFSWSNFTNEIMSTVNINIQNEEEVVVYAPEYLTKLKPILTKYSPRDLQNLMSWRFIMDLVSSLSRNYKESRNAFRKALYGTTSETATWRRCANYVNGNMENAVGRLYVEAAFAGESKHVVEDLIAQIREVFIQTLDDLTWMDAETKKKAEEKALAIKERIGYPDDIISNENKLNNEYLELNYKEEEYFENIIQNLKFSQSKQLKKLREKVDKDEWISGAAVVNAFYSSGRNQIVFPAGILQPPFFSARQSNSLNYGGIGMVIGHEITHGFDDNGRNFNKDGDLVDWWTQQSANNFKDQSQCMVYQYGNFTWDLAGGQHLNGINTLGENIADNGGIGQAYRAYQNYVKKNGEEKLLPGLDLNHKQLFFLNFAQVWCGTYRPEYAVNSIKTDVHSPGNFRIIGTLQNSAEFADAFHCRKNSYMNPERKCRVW

[6] = Inhibitory concentration against the live parasite in preventing hemoglobin degradation.; assay type: functional
[7] = target: Plasmepsin I (Plasmodium falciparum, UniProt P39898); assay: Inhibitory concentration for Plasmodium falciparum plasmepsin-1.
Sequence of Plasmepsin I (P39898 whole entry): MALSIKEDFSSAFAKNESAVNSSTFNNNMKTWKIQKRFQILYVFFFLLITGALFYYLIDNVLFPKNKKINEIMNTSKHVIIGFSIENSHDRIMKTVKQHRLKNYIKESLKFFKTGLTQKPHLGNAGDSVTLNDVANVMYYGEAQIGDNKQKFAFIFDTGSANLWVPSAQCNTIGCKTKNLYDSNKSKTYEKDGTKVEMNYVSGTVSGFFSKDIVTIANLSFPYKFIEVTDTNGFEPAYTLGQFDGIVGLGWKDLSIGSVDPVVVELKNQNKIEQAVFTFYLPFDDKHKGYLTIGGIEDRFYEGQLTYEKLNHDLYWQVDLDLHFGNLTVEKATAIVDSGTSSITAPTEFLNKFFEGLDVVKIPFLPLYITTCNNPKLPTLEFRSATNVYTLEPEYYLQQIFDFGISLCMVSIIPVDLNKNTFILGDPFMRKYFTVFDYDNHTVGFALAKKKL

[8] = target: Plasmepsin II (Plasmodium falciparum) (UniProt P46925); assay: Inhibition of Plasmodium falciparum plasmepsin-2 at 10 uM
Sequence of Plasmepsin II (Plasmodium falciparum) (P46925 125-453 limits assumed): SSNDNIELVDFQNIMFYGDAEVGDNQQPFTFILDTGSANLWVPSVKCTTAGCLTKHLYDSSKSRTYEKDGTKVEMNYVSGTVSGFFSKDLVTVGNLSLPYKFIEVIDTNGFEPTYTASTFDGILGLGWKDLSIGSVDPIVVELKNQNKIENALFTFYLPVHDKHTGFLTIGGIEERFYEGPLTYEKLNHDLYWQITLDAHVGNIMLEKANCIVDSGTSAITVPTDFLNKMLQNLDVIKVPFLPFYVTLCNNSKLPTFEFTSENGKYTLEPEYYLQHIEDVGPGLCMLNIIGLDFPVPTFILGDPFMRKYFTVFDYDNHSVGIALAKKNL

[9] = species on record: Mus musculus; assay: Inhibitory concentration against mice; assay type: functional
[10] = tested on: Oryctolagus cuniculus; assay: Inhibition of thrombosis in rabbits ( ED50 (iv); assay type: functional
[11] = target: Serine protease 1 (Homo sapiens, UniProt P07477)
Sequence of Serine protease 1 (P07477 whole entry): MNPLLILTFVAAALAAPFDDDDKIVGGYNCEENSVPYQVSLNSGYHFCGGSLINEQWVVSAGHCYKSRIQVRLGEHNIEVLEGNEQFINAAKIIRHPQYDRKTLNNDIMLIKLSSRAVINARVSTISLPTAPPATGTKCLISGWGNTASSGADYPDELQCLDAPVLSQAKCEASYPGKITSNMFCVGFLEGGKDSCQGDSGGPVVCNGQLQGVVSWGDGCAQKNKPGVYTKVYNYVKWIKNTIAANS

[12] = tested on: Oryctolagus cuniculus; assay: Inhibition of thrombosis in rabbits ( ED50 (sc); assay type: functional
[13] = tested on: Oryctolagus cuniculus; assay: Inhibition of thrombosis in rabbits ( ED50 (po); assay type: functional
[14] = Partition coefficient (logP); assay type: physicochemical; details: octanol/water; read-out: logP
[15] = Binding affinity against plasmepsin; set-up: species or system Plasmodium falciparum
[16] = tested on: Cricetinae gen. sp.; assay: Inhibition against at the dose of 30 mg/kg after 30 minutes.; assay type: functional, Cricetulus griseus; details: 0.5 h
[17] = target: Neutrophil elastase (Homo sapiens) (UniProt P08246); assay: Inhibition of elastase.
Sequence of Neutrophil elastase (Homo sapiens) (P08246 whole entry): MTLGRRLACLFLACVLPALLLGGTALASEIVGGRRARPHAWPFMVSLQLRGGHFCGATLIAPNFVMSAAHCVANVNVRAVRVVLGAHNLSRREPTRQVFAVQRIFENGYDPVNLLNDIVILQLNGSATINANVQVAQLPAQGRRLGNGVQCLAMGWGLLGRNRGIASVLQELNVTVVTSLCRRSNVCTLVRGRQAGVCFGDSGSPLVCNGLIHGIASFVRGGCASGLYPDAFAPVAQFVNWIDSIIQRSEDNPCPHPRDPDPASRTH

[18] = Half life.; assay type: ADME
[19] = tested on: Cricetinae gen. sp.; assay: Inhibition against at the dose of 30 mg/kg after 5 hr.; assay type: functional, Cricetulus griseus
[20] = tested on: Enterovirus; assay: Inhibitory activity against the different replication of HRV serotypes and related piocornaviruses A21 and B3, enterovirus 70 and echo virus 11; assay type: functional, organism-based
[21] = The inhibition against liver metastases at 100 ug/mL.; assay type: ADME, tissue-based
[22] = Inhibitory concentration against SAP
[23] = target: T1, Renin; assay: Inhibitory concentration against renin..
[24] = Half life in dogs.; assay type: ADME, organism-based, Canis lupus familiaris; details: dog, in vivo
[25] = oral bioavailability in marmosets; assay type: ADME, organism-based; details: callithrix, in vivo, read-out: Bioavailabiility
[26] = oral bioavailability in cynomolgus monkeys; assay type: ADME, organism-based, Macaca fascicularis; details: cynomolgus monkey, in vivo, read-out: Bioavailabiility
[27] = target: T1, Renin
[28] = target: Pepsin A (Sus scrofa, UniProt P00791); assay: Inhibitory concentration against porcine pepsin
Sequence of Pepsin A (P00791 whole entry): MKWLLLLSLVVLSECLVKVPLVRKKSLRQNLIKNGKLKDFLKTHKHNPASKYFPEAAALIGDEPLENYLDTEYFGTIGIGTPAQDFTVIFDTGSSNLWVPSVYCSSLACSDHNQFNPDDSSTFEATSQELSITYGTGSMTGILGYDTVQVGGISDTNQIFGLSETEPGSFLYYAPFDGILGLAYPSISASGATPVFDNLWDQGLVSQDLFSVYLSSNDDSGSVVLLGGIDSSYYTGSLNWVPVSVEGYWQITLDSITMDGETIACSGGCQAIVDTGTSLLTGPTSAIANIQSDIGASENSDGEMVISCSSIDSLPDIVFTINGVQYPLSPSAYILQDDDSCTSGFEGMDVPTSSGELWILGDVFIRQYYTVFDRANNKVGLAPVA

[29] = Oral bioavailability in dog; assay type: ADME, organism-based, Canis lupus familiaris; details: in vivo
[30] = target: T2, Cathepsin D; assay: Inhibitory concentration against human cathepsin D.

## CCCC[C@@H](C(=O)N[C@@H](CC1CCCCC1)[C@@H](O)C[C@H](C(=O)NCCC)C(C)C)N1CCN(C(=O)N2CCN(C)CC2)[C@H](Cc2ccccc2)C1=O
[1]
  IC50: 1.4 nM
[2]
  IC50: 7.1 nM
[3]
  IC50: 770 nM

## CCOC(=O)/C=C/[C@H](CCC(N)=O)NC(=O)[C@H](Cc1ccc(C)cc1)NC(=O)[C@@H](NC(=O)SC1CCCC1)C(C)(C)C
[4]
  EC50: 56 nM

## C[C@H](NC(=O)[C@@H](CS)Cc1ccc2c(c1)OCO2)C(=O)O
[5]
  Ki: 5.6 nM

## CCCCC(O)[C@H](C)C[C@H](O)[C@H](CC1CCCCC1)NC(=O)[C@H](CC(C)C)NC(=O)[C@H](Cc1ccccc1)NC(=O)OC(C)(C)C (stereo partly specified)
[6]
  IC50: 5000 nM
[7]
  IC50: 500 nM
[8]
  inhibition: 22%

## CC(=N)N1CC[C@H](Oc2ccc([C@H](Cc3ccc4ccc(C(=N)N)cc4c3)C(=O)O)cc2)C1 [DX-9065A]
[9]
  ED50: 56 mg/kg
[10]
  ED50: 0.03 mg/kg
[11]
  Ki: 620 nM
[12]
  ED50: 0.3 mg/kg
[13]
  ED50: 50.5 mg/kg

## COc1ccc(CCN(C[C@H](O)[C@H](Cc2ccccc2)NC(=O)COc2cccc(Cl)c2)C(=O)C2CCNCC2)cc1
[14]
  logP: 3.71
[15]
  Ki: 4.3 nM

## CC[C@@H](NC(=O)N1C(=O)[C@](C)(CC)[C@@H]1Oc1ccc(CC(=O)O)cc1)c1ccccc1
[16]
  inhibition in vivo at 30 mg/kg: 98%
[17]
  K obs / 1: 91000 M⁻¹ s⁻¹
[18]
  half-life: 5 h
[19]
  inhibition in vivo at 30 mg/kg: 51%

## CC(=O)NC[C@@H](C=O)NC(=O)[C@H](Cc1ccccc1)NC(=O)[C@H](CC(C)C)NC(=O)OCc1ccccc1 (Cbz-Leu-Phe-[Dap](Ac)-aldehyde)
[20]
  Ki: 6 nM

## CC(C)C[C@H](NC(=O)[C@H]1O[C@@H]1C(=O)O)C(=O)NCCCCN=C(N)N [E-64]
[21]
  Inhibition: 90%

## CCCC[C@@H](C(=O)N[C@@H](CC1CCCCC1)[C@@H](O)C[C@H](C(=O)NCCN(C)C)C(C)C)N1CCN(C(=O)N2CCN(C)CC2)[C@H](Cc2ccccc2)C1=O
[22]
  IC50: 6.2 nM
[23]
  IC50: > 100 nM
[3]
  IC50: 58000 nM

## CNC1CCN(C(=O)C[C@@H](Cc2ccccc2)C(=O)N[C@@H](CSC)C(=O)N[C@@H](CC2CCCCC2)[C@@H](O)C(=O)OC(C)C)CC1
[24]
  half-life: 2.4 h
[25]
  bioavailability: 59%
[26]
  bioavailability: > 27%
[27]
  IC50: 4 nM
[28]
  IC50: 2100 nM
[29]
  bioavailability: 60%
[30]
  IC50: 550 nM
